Laboratory results: ChEMBL document CHEMBL5360574, “Optimization of potent, selective and orally bioavailable biphenyl scaffold as FABP4 inhibitors for anti-inflammation” (Eur J Med Chem, 2023)
Active and inactive are the calls of the source. The rule behind the calls is not given here.

Legend:
[1] = target: Fatty acid-binding protein, adipocyte (Homo sapiens, UniProt P15090); assay: Displacement of 1,8-ANS from FABP4 (unknown origin) assessed as inhibition constant by fluorescence based analysis
[2] = Cmax in ICR mouse at 25 mg/kg, po measured upto 24 hrs by LC-MS/MS analysis; type: ADME, organism-based; parameters: dose 25 mg/kg, time < 24 hrs, route po; conditions: in vivo
[3] = test system: THP-1; assay: Cytotoxicity against human THP-1 cells assessed as reduction in cell growth at 80 uM measured after 24 hrs by CCK-8 assay; type: toxicity, cell-based; conditions: thp-1, 24 h
[4] = MRT in ICR mouse at 3 mg/kg, iv measured upto 24 hrs by LC-MS/MS analysis; type: ADME, organism-based; conditions: in vivo
[5] = Clearance in ICR mouse at 3 mg/kg, iv measured upto 24 hrs by LC-MS/MS analysis; type: ADME, organism-based; conditions: in vivo
[6] = target: Fatty acid-binding protein, heart (Homo sapiens, UniProt P05413); assay: Displacement of 1,8-ANS from FABP3 (unknown origin) assessed as inhibition constant by fluorescence based analysis
[7] = Volume of distribution at steady state in ICR mouse at 3 mg/kg, iv measured upto 24 hrs by LC-MS/MS analysis; type: ADME, organism-based; conditions: in vivo, read-out: Vdss
[8] = AUC(0 to 24 hrs) in ICR mouse at 25 mg/kg, po measured upto 24 hrs by LC-MS/MS analysis; type: ADME, organism-based; parameters: time < 24 hrs, dose 25 mg/kg, route po; conditions: in vivo
[9] = Toxicity in LPS-induced acute inflammation C57BL/6J mouse model assessed as effect on spleen damage at 50 mg/kg, po qd via gavage administered for 4 days followed by LPS induction by hematoxylin and eosin staining based microscopic analysis; type: organism-based; conditions: in vivo, 96 h, time 4 day
[10] = test system: Mus musculus; assay: Antiinflammatory activity in LPS-induced acute inflammation C57BL/6J mouse model assessed as reduction in MCP-1 level in serum at 50 mg/kg, po qd via gavage administered for 4 days followed by LPS induction; type: functional, organism-based; conditions: time 4.0 day
[11] = Toxicity in LPS-induced acute inflammation C57BL/6J mouse model assessed as effect on liver damage at 50 mg/kg, po qd via gavage administered for 4 days followed by LPS induction by hematoxylin and eosin staining based microscopic analysis; type: organism-based; conditions: in vivo, 96 h, time 4 day
[12] = Metabolic stability in mouse liver microsomes assessed as intrinsic clearance at 0.1 uM measured upto 60 mins in presence of NADPH by LC-MS/MS analysis; type: ADME, Microsome; conditions: 1 h
[13] = Toxicity in LPS-induced acute inflammation C57BL/6J mouse model assessed as change in body weight at 50 mg/kg, po qd via gavage administered for 4 days followed by LPS induction; type: organism-based; conditions: in vivo, 96 h, time 4 day
[14] = Metabolic stability in mouse liver microsomes assessed as half life at 0.1 uM measured upto 60 mins in presence of NADPH by LC-MS/MS analysis; type: ADME, Microsome
[15] = test system: THP-1; assay: Antiinflammatory activity in LPS-induced human THP-1 cells assessed as reduction in MCP-1 mRNA expression at 25 uM incubated for 24 hrs by RT-PCR analysis; type: functional, cell-based
[16] = test system: THP-1; assay: Antiinflammatory activity in LPS-induced human THP-1 cells assessed as inhibition of MCP-1 secretion at 1 uM pre-incubated with compound for 18 hrs followed by LPS induction measured after 6 hrs by ELISA method; type: functional, cell-based; conditions: time 24.0 hrs
[17] = test system: Mus musculus; assay: Antiinflammatory activity in LPS-induced acute inflammation C57BL/6J mouse model assessed as reduction in ALT level in serum at 50 mg/kg, po qd via gavage administered for 4 days followed by LPS induction; type: functional, organism-based; conditions: time 4.0 day
[18] = Half life in ICR mouse at 25 mg/kg, po measured upto 24 hrs by LC-MS/MS analysis; type: ADME, organism-based; conditions: in vivo
[19] = test system: 3T3-L1; assay: Cytotoxicity against mouse 3T3-L1 cells assessed as reduction in cell growth at 100 uM measured after 24 hrs by CCK-8 assay; type: toxicity, cell-based; conditions: 3t3-l1, 24 h
[20] = Tmax in ICR mouse at 25 mg/kg, po measured upto 24 hrs by LC-MS/MS analysis; type: ADME, organism-based; conditions: in vivo
[21] = Half life in ICR mouse at 3 mg/kg, iv measured upto 24 hrs by LC-MS/MS analysis; type: ADME, organism-based; conditions: in vivo
[22] = AUC(0 to 24 hrs) in ICR mouse at 3 mg/kg, iv measured upto 24 hrs by LC-MS/MS analysis; type: ADME, organism-based; parameters: dose 3 mg/kg, time < 24 hrs, route iv; conditions: in vivo
[23] = Oral bioavailability in ICR mouse at 25 mg/kg measured upto 24 hrs by LC-MS/MS analysis; type: ADME, organism-based; conditions: in vivo
[24] = test system: Mus musculus; assay: Antiinflammatory activity in LPS-induced acute inflammation C57BL/6J mouse model assessed as reduction in AST level in serum at 50 mg/kg, po qd via gavage administered for 4 days followed by LPS induction; type: functional, organism-based; conditions: time 4.0 day
[25] = MRT in ICR mouse at 25 mg/kg, po measured upto 24 hrs by LC-MS/MS analysis; type: ADME, organism-based; conditions: in vivo
[26] = Metabolic stability in mouse liver microsomes assessed as intrinsic clearance at 0.1 uM measured per gram protein measured upto 60 mins in presence of NADPH by LC-MS/MS analysis; type: ADME, Microsome; conditions: 1 h

Chain of Fatty acid-binding protein, heart (P05413 whole entry): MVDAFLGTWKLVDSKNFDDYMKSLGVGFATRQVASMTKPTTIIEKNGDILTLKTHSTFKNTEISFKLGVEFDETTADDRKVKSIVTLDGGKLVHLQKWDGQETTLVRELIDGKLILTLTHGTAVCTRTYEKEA
Chain of Fatty acid-binding protein, adipocyte (P15090 whole entry): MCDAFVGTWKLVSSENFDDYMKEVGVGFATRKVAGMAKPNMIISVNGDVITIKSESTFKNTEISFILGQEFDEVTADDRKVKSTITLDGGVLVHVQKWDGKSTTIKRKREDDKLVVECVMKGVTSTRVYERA

CS(=O)(=O)Nc1ccc(-c2cccc(Cl)c2-c2ccc3c(c2)CCO3)cc1C(=O)O
Ki [1]: 330 nM

O=C(O)C1CCc2ccc(-c3cccc(Cl)c3-c3ccc4occc4c3)cc21 (centres undefined)
Ki [1]: 690 nM

O=C(O)c1cc(-c2cccc(Cl)c2-c2ccc3c(c2)CCO3)ccc1[N+](=O)[O-]
Ki [1]: 300 nM

O=C(O)C1CCc2ccc(-c3cccc(Cl)c3OC3CCC3)cc21 (centres undefined)
Ki [1]: 790 nM

Nc1ccc(-c2cccc(Cl)c2-c2ccc3c(c2)CCO3)cc1C(=O)O
Ki [1]: 430 nM

O=C(O)c1cc(-c2cccc(Cl)c2-c2ccc3c(c2)CCO3)ccc1O
Ki [1]: 280 nM

O=C(O)c1cc(-c2cccc(Cl)c2-c2ccc3occc3c2)ccc1C(F)(F)F
Ki [1]: 720 nM

O=C(O)C1CCc2ccc(-c3cccc(Cl)c3-c3ccc4c(c3)OCO4)cc21 (centres undefined)
Ki [1]: 790 nM

O=C(O)c1cc(-c2cccc(Cl)c2-c2ccc3c(c2)CCO3)ccc1C(F)(F)F
Cmax [2]: 15500 ng/mL
Activity [3]: Non-Toxic
MRT [4]: 4.04 h
clearance [5]: 12.5 mL/min/kg
Ki [6]: 33000 nM
Vd [7]: 3.32 L/kg
AUC(0-t) at 24 h [8]: 26800 ng·h/mL
Activity [9]: Non-Toxic
Activity [10]: Active
Activity [11]: Non-Toxic
CLH [12]: 0.266 mL/min
Activity [13]: Non-Toxic
half-life at 0.1 µM [14]: 8.9 h
Activity [15]: Active
Activity [16]: Active
Activity [17]: Active
Ki [1]: 510 nM
half-life [18]: 3.43 h
Activity [19]: Non-Toxic
Tmax [20]: 0.25 h
half-life [21]: 5.64 h
AUC(0-t) at 24 h [22]: 3600 ng·h/mL
bioavailability [23]: 89.4%
Activity [24]: Active
MRT [25]: 5.3 h
CLH [26]: 3.94 mL/min/g

O=C(O)C1CCc2ccc(-c3cccc(Cl)c3OCc3ccccc3)cc21 (centres undefined)
Ki [1]: 1320 nM

O=C(O)C1CCc2ccc(-c3cccc(Cl)c3OCC3CCC3)cc21 (centres undefined)
Ki [1]: 750 nM

O=C(O)c1ccccc1Nc1cccc(Cl)c1-c1ccc2c(c1)CCO2
Activity [3]: Non-Toxic
Ki [6]: 920 nM
Activity [19]: Non-Toxic

CC(C(=O)O)c1cccc(-c2cccc(Cl)c2-c2ccc3c(c2)CCO3)c1 (centres undefined)
Ki [1]: 1470 nM

O=C(O)Cc1cccc(-c2cccc(Cl)c2-c2ccc3c(c2)CCO3)c1
Ki [1]: 350 nM

O=C(O)C1CCc2ccc(-c3cccc(Cl)c3-c3ccc4ocnc4c3)cc21 (centres undefined)
Ki [1]: 740 nM

O=C(O)CCc1cccc(-c2cccc(Cl)c2-c2ccc3c(c2)CCO3)c1
Ki [1]: 1810 nM

O=C(O)C1CCc2ccc(-c3cccc(Cl)c3-c3ccc4nonc4c3)cc21 (centres undefined)
Ki [1]: 2370 nM

O=C(O)C1CCc2ccc(-c3cccc(Cl)c3OCC3CCCC3)cc21 (centres undefined)
Ki [1]: 1730 nM

O=C(O)C1CCc2ccc(-c3cccc(Cl)c3-c3ccc4[nH]ncc4c3)cc21 (centres undefined)
Ki [1]: 760 nM

O=C(O)C1CCc2ccc(-c3cccc(Cl)c3OCC3CCCCC3)cc21 (centres undefined)
Ki [1]: 1800 nM

O=C(O)c1cccc(-c2cccc(Cl)c2-c2ccc3c(c2)CCO3)c1
Ki [1]: 480 nM

Cc1ccc(-c2cccc(Cl)c2-c2ccc3c(c2)CCO3)cc1C(=O)O
Ki [1]: 320 nM

O=C(O)c1cc(-c2cccc(Cl)c2-c2ccc3c(c2)OCO3)ccc1C(F)(F)F
Ki [1]: 1690 nM

O=C(O)c1cc(-c2cccc(Cl)c2-c2ccc3nonc3c2)ccc1C(F)(F)F
Ki [1]: 920 nM

CCc1c(-c2ccccc2)c(-c2ccccc2)nn1-c1ccccc1-c1cccc(OCC(=O)O)c1
Activity [3]: Non-Toxic
Activity [9]: Non-Toxic
Activity [10]: Active
Activity [11]: Non-Toxic
Activity [13]: Non-Toxic
Activity [15]: Active
Activity [17]: Active
Activity [19]: Non-Toxic
Activity [24]: Active

O=C(O)C1CCc2ccc(-c3cccc(Cl)c3-c3ccc4c(c3)CCO4)cc21 (centres undefined)
Activity [3]: Non-Toxic
Ki [6]: 18100 nM
CLH [12]: 2.66 mL/min
half-life at 0.1 µM [14]: 0.883 h
Activity [15]: Active
Ki [1]: 580 nM
Activity [19]: Non-Toxic
CLH [26]: 39.4 mL/min/g

O=C(O)c1cc(O)cc(-c2cccc(Cl)c2-c2ccc3c(c2)CCO3)c1
Ki [1]: 550 nM
